Test results: patent publication US20160046579A1, “THERAPEUTIC COMPOUNDS AND COMPOSITIONS” (AGIOS PHARMACEUTICALS, INC., priority 2013, published 2016)

Columns and labels:
wt PKR [1] = molecular target: T1, wt PKR (Homo sapiens, UniProt P30613); assay: wt PKR cell based assay
PKR R532W = PKR R532W (Homo sapiens, UniProt P30613, R532W); assay: PKR Mutant Assay, dose response (AC50), PKR R532W; type: biochemical; conditions: PKR R532W mutant enzyme
Procedure: (§1) • PKR or PKR mutant enzyme solution was diluted in assay buffer. • 2 μL of test compound was added into wells first, and then 180 μL reaction mix was added. • Reactions mixture with test compound was assembled except for ADP, and plates were stored for 60 minutes at room temperature. • 20 uL ADP was added to start reaction at room temperature and reaction progress was measured as changes in absorbance at 340 nm wavelength at room temperature.
(§2) Test Compound Preparation: • Test compound stock was made at 100× concentration in 100% DMSO (10 mM) • 1 to 3 dilutions were made for 11 points (i.e. 50 μl of first concentration added to 100 μl 100% DMSO to yield 3.33 mM, 50 μl of this added to 100 μl DMSO to yield 1.11 mM, and so forth) • 1 to 100 dilution into assay (2 μl in 200 μl) yielded starting concentration of 100 μM, decreasing 3 fold for 11 points.

wt PKR [2] = molecular target: T1, wt PKR; assay: PKR Mutant Assay, dose response (AC50), wild type PKR enzyme; type: biochemical; conditions: wild type PKR enzyme
Procedure: as §1, §2

PKR R510Q = PKR R510Q (Homo sapiens, UniProt P30613, R510Q); assay: PKR Mutant Assay, dose response (AC50), PKR R510Q; type: biochemical; conditions: PKR R510Q mutant enzyme
Chain of PKR R510Q (P30613 whole entry R510Q): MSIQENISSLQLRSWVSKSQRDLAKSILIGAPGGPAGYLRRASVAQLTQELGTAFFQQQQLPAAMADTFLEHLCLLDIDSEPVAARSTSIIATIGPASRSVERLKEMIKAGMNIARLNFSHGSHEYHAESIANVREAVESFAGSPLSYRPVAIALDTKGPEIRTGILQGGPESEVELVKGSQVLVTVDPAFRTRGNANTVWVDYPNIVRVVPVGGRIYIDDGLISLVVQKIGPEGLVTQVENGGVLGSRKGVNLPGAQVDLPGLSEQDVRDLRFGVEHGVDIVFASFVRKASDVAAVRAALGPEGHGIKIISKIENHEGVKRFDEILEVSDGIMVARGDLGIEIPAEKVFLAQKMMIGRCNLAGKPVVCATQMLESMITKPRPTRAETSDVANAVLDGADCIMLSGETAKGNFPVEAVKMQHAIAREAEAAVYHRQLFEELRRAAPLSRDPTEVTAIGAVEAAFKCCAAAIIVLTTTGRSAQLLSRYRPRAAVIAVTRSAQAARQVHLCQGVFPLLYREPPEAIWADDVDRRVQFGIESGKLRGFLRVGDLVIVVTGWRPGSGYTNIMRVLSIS
Procedure: as §1, §2

T1 sequence (P30613 whole entry): as the sequence (P30613 whole entry R510Q) above, with Q510R counted along it
Chain of PKR R532W (P30613 whole entry R532W): as the sequence (P30613 whole entry R510Q) above, with Q510R, R532W counted along it

Structure (SMILES) | AC50 (wt PKR [1]) [nM] | AC50 (PKR R532W) [nM] | AC50 (wt PKR [2]) [nM] | AC50 (PKR R510Q) [nM]
Nc1cnc2c(S(=O)(=O)Nc3ccc(C(=O)N4CCC(O)(c5cccc(F)c5F)CC4)cc3)cccc2n1 [Compound 493, 2-amino-N-(4-(4-(2,3-difluorophenyl)-4-hydroxypiperidine-1-carbonyl)phenyl)quinoxaline-5-sulfonamide] | < 100 | < 100 | < 100 | < 100
O=C(c1ccc(NS(=O)(=O)c2cccc3nccnc23)cc1)N1CCC(O)(C2CCC(O)CC2)CC1 (stereo not shown) [Compound 502, N-(4-(4-hydroxy-4-(4-hydroxycyclohexyl)piperidine-1-carbonyl)phenyl)quinoxaline-5-sulfonamide] | 101 to 1000 | 101 to 1000 | 101 to 1000 | 101 to 1000
CC(F)(F)CCC1(O)CCN(C(=O)c2ccc(NS(=O)(=O)c3cccc4nccnc34)cc2F)CC1 [Compound 478, N-(4-(4-(3,3-difluorobutyl)-4-hydroxypiperidine-1-carbonyl)-3-fluorophenyl)quinoxaline-5-sulfonamide] | 101 to 1000 | 101 to 1000 | 101 to 1000 | 101 to 1000
CC(F)(F)CCC1(O)CCN(C(=O)c2ccc(NS(=O)(=O)c3cccc4nc(N)cnc34)cc2)CC1 [Compound 486, 2-amino-N-(4-(4-(3,3-difluorobutyl)-4-hydroxypiperidine-1-carbonyl)phenyl)quinoxaline-5-sulfonamide] | < 100 | < 100 | < 100 | 101 to 1000
CC(F)(F)CCC1(O)CCN(C(=O)c2ccc(NS(=O)(=O)c3cc(F)cc4sc(N)nc34)cc2F)CC1 [Compound 483, 2-amino-N-(4-(4-(3,3-difluorobutyl)-4-hydroxypiperidine-1-carbonyl)-3-fluorophenyl)-6-fluorobenzo[d]thiazole-4-sulfonamide] | 101 to 1000 | 101 to 1000 | < 100 | 101 to 1000
CC(C)CC1(OC(=O)OCOP(=O)(O)O)CCN(C(=O)c2ccc(NS(=O)(=O)c3cccc4scnc34)cc2)CC1 [Compound 526] | < 100 | 101 to 1000 | 101 to 1000 | 101 to 1000
Cn1nccc1CC1(O)CCN(C(=O)c2ccc(NS(=O)(=O)c3cccc4nccnc34)cc2)CC1 [Compound 508, N-(4-(4-hydroxy-4-((1-methyl-1H-pyrazol-5-yl)methyl)piperidine-1-carbonyl)phenyl)quinoxaline-5-sulfonamide] | < 100 | < 100 | < 100 | 101 to 1000
O=C(c1ccc(NS(=O)(=O)c2cccc3scnc23)cc1)N1CCC(O)(C2CCC(O)CC2)CC1 (stereo not shown) [Compound 501, N-(4-(4-hydroxy-4-(4-hydroxycyclohexyl)piperidine-1-carbonyl)phenyl)benzo[d]thiazole-4-sulfonamide] | 101 to 1000 | 101 to 1000 | 101 to 1000 | 101 to 1000
O=C(c1ccc(NS(=O)(=O)c2cccc3nccnc23)cc1)N1CCC(O)(Cc2cc[nH]n2)CC1 [Compound 500, N-(4-(4-((1H-pyrazol-3-yl)methyl)-4-hydroxypiperidine-1-carbonyl)phenyl)quinoxaline-5-sulfonamide] | 101 to 1000 | 101 to 1000 | 101 to 1000 | 1010 to 10000
O=C(c1ccc(NS(=O)(=O)c2cccc3nccnc23)cc1)N1CCC(O)(Cc2c(O)n[nH]c2C(F)(F)F)CC1 [Compound 523] | 101 to 1000 | 101 to 1000 | 101 to 1000 | 1010 to 10000
Cc1cc(C2(O)CCN(C(=O)c3ccc(NS(=O)(=O)c4cccc5nccnc45)cc3)CC2)sn1 [Compound 518, N-(4-(4-hydroxy-4-(3-methylisothiazol-5-yl)piperidine-1-carbonyl)phenyl)quinoxaline-5-sulfonamide] | 101 to 1000 | < 100 | < 100 | 101 to 1000
O=C(c1ccc(NS(=O)(=O)c2cccc3nccnc23)cc1)N1CCC(O)(Cc2cn[nH]c2)CC1 [Compound 499, N-(4-(4-((1H-pyrazol-4-yl)methyl)-4-hydroxypiperidine-1-carbonyl)phenyl)quinoxaline-5-sulfonamide] | 101 to 1000 | < 100 | < 100 | 101 to 1000
Nc1cnc2c(S(=O)(=O)Nc3ccc(C(=O)N4CCC(O)(CCCC(F)(F)F)CC4)cc3)cccc2n1 [Compound 482, 2-amino-N-(4-(4-hydroxy-4-(4,4,4-trifluorobutyl)piperidine-1-carbonyl)phenyl)quinoxaline-5-sulfonamide] | < 100 | < 100 | < 100 | < 100
CC(C)CC1(O)CCN(C(=O)c2ccc(NS(=O)(=O)c3cncc4cccnc34)cc2)CC1 [Compound 513, N-(4-(4-hydroxy-4-isobutylpiperidine-1-carbonyl)phenyl)-1,6-naphthyridine-8-sulfonamide] | < 100 | < 100 | < 100 | 101 to 1000
Cc1cc(CC2(O)CCN(C(=O)c3ccc(NS(=O)(=O)c4cccc5nccnc45)cc3)CC2)sn1 [Compound 511, N-(4-(4-hydroxy-4-((3-methylisothiazol-5-yl)methyl)piperidine-1-carbonyl)phenyl)quinoxaline-5-sulfonamide] | 101 to 1000 | < 100 | < 100 | 101 to 1000

Next, values leading:

AC50 (wt PKR [1]) [nM] | AC50 (PKR R532W) [nM] | AC50 (wt PKR [2]) [nM] | AC50 (PKR R510Q) [nM] | Structure (SMILES)
101 to 1000 | < 100 | < 100 | 101 to 1000 | Cc1n[nH]c(C)c1CC1(O)CCN(C(=O)c2ccc(NS(=O)(=O)c3cccc4nccnc34)cc2)CC1 [Compound 512, N-(4-(4-((3,5-dimethyl-1H-pyrazol-4-yl)methyl)-4-hydroxypiperidine-1-carbonyl)phenyl)quinoxaline-5-sulfonamide]
101 to 1000 | < 100 | < 100 | 101 to 1000 | O=C(c1ccc(NS(=O)(=O)c2cccc3scnc23)cc1)N1CCC(O)(c2scnc2Cl)CC1 [Compound 480, N-(4-(4-(4-chlorothiazol-5-yl)-4-hydroxypiperidine-1-carbonyl)phenyl)benzo[d]thiazole-4-sulfonamide]
< 100 | < 100 | < 100 | < 100 | Cc1ccccc1CC1(O)CCN(C(=O)c2ccc(NS(=O)(=O)c3cccc4scnc34)cc2)CC1 [Compound 125]
101 to 1000 | < 100 | < 100 | 101 to 1000 | Cc1cc(C2(O)CCN(C(=O)c3ccc(NS(=O)(=O)c4cccc5scnc45)cc3)CC2)sn1 [Compound 479]
< 100 | < 100 | < 100 | 101 to 1000 | Cc1noc(C)c1CC1(O)CCN(C(=O)c2ccc(NS(=O)(=O)c3cccc4nccnc34)cc2)CC1 [Compound 521, N-(4-(4-((3,5-dimethylisoxazol-4-yl)methyl)-4-hydroxypiperidine-1-carbonyl)phenyl)quinoxaline-5-sulfonamide]
< 100 | < 100 | < 100 | 101 to 1000 | O=C(c1ccc(NS(=O)(=O)c2cccc3scnc23)cc1)N1CCC(O)(c2sncc2Cl)CC1 [Compound 522, N-(4-(4-(4-chloroisothiazol-5-yl)-4-hydroxypiperidine-1-carbonyl)phenyl)benzo[d]thiazole-4-sulfonamide]
101 to 1000 | < 100 | < 100 | 101 to 1000 | O=C(c1ccc(NS(=O)(=O)c2cccc3scnc23)cc1)N1CCC(O)(Cc2cn[nH]c2)CC1 [Compound 498, N-(4-(4-((1H-pyrazol-4-yl)methyl)-4-hydroxypiperidine-1-carbonyl)phenyl)benzo[d]thiazole-4-sulfonamide]
< 100 | < 100 | < 100 | < 100 | Cc1nscc1CC1(O)CCN(C(=O)c2ccc(NS(=O)(=O)c3cccc4ncsc34)cc2)CC1 [Compound 519, N-(4-(4-hydroxy-4-((3-methylisothiazol-4-yl)methyl)piperidine-1-carbonyl)phenyl)benzo[d]thiazole-7-sulfonamide]
101 to 1000 | < 100 | < 100 | 101 to 1000 | Cc1n[nH]c(C)c1CC1(O)CCN(C(=O)c2ccc(NS(=O)(=O)c3cccc4scnc34)cc2)CC1 [Compound 514]
101 to 1000 | < 100 | < 100 | 101 to 1000 | Cc1noc(C)c1CC1(O)CCN(C(=O)c2ccc(NS(=O)(=O)c3cccc4scnc34)cc2)CC1 [Compound 520, N-(4-(4-((3,5-dimethylisoxazol-4-yl)methyl)-4-hydroxypiperidine-1-carbonyl)phenyl)benzo[d]thiazole-4-sulfonamide]
